Our source for the IC50 and inhibition values is ChEMBL document CHEMBL1129052, “2-[(2-Aminobenzyl)sulfinyl]-1-(2-pyridyl)-1,4,5,6-tetrahydrocyclopent[d]imidazoles as a novel class of gastric H+/K+-ATPase inhibitors” (J Med Chem, 1996).

Broadly, the IC50 is the concentration at which inhibition is half-maximal. Lower therefore signals inhibition by little substance. For orientation: inhibition means the drop in the measured response relative to a control, in per cent. Higher therefore signals a response far below the control.

Assay [1] concerns the target Potassium-transporting ATPase (Sus scrofa, UniProt P19156). The assay is described as follows: In vitro inhibition against H+/K+ ATPase from porcine gastric mucosal membrane vesicles. In kind it is tissue-based, Gastric mucosa.
For assay [2], the target named is Potassium-transporting ATPase (Rattus norvegicus) (UniProt P09626+P18598). Briefly: Gastric antisecretory activity was tested in rats at 30 mg/kg, po expressed as the percentage of inhibition against the acid output of the control group. Type of assay: functional, organism-based. Set-up: dose 30 mg/kg.

Sequence of Potassium-transporting ATPase (P18434 whole entry): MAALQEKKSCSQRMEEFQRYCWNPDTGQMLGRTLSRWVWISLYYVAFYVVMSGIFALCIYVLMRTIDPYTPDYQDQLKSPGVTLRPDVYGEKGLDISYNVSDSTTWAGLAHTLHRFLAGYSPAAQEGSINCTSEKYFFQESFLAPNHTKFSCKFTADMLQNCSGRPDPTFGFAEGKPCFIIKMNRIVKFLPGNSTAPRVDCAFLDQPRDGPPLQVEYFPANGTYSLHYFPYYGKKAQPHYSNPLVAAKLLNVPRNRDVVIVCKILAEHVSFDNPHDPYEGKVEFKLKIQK
Sequence of Potassium-transporting ATPase (P19156 whole entry): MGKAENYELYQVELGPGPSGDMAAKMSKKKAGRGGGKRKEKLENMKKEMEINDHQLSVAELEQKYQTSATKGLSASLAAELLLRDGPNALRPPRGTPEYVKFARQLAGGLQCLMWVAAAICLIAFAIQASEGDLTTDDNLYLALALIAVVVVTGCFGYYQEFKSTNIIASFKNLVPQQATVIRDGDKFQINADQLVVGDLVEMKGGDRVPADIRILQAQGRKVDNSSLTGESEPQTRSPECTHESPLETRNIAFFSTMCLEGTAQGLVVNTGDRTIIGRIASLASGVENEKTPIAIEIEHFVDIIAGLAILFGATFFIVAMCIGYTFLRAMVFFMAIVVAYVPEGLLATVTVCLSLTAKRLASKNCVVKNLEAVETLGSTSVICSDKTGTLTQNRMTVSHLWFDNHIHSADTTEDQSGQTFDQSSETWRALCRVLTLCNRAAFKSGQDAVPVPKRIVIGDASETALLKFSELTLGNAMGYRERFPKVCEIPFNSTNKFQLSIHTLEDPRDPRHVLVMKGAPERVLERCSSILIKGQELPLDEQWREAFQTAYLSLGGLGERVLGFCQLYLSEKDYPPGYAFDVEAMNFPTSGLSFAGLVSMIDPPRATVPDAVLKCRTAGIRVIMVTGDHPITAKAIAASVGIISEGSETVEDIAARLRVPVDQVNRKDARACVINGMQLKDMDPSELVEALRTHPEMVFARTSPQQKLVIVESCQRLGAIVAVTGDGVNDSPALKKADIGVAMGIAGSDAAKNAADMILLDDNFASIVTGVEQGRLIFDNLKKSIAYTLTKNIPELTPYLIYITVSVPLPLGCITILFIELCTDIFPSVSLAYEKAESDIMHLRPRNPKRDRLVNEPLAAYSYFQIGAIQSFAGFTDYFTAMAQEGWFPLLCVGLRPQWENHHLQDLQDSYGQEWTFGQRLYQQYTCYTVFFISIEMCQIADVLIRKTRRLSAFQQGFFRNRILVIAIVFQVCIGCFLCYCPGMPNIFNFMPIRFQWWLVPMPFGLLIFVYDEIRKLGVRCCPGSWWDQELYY

`CN(C)c1ccccc1C[S+]([O-])c1nc2c(n1Cc1ccccn1)CCC2` (stereo unspecified) came in with an IC50 in assay [1] of 55 µM. Moreover, in assay [2], the inhibition amounted to 12%. For `CC(=O)Oc1cccnc1-n1ccnc1[S+]([O-])Cc1ccccc1N(C)C` (stereo unspecified), in that order: 12 µM and 2%. As for `COc1cccnc1-n1ccnc1[S+]([O-])Cc1ccccc1N` (stereo unspecified), inhibition in assay [1] was half-maximal at 100 µM (IC50). Besides, the inhibition in assay [2] turned out to be 79%. For `CN(C)c1ccccc1C[S+]([O-])c1nccn1C` (stereo unspecified), in that order: 32 µM and 98%. For `COc1cnc(-n2ccnc2[S+]([O-])Cc2ccccc2N(C)C)cc1OC` (stereo unspecified), in that order: 12 µM and 13%. Regarding `Cc1cc(Br)cnc1-n1ccnc1[S+]([O-])Cc1ccccc1N(C)C` (stereo unspecified), in assay [1], the IC50 was determined as 50 µM. In assay [2], this compound had an inhibition of 46%. For `CNc1ccccc1C[S+]([O-])c1nccn1-c1ncccc1OC` (stereo unspecified), in that order: 6 µM and 83%. In turn, `CN(C)c1ccccc1C[S+]([O-])c1nccn1Cc1ccccc1` (stereo unspecified) returned an IC50 in assay [1] of 14 µM. In assay [2], the inhibition stood at 72%. Regarding `CN(C)c1ccccc1C[S+]([O-])c1nc2c(n1-c1ccccn1)CCC2` (stereo unspecified), the IC50 in assay [1] is 32 µM. In addition, in assay [2], the inhibition worked out at 97%. For `CNc1ccccc1C[S+]([O-])c1nccn1-c1ccccn1` (stereo unspecified), in that order: 7 µM and 54%.

For the compound `CN(C)c1ccccc1C[S+]([O-])c1nccn1-c1ccc([N+](=O)[O-])cn1` (stereo unspecified), the IC50 in assay [1] turned out to be 60 µM. In addition, the inhibition in assay [2] was 0%. Regarding `CN(C)c1ccccc1C[S+]([O-])c1nccn1-c1ccc(Br)cn1` (stereo unspecified), the inhibition in assay [2] stood at 0%. Consider `CCN(CC)c1ccccc1C[S+]([O-])c1nccn1-c1ncccc1C` (stereo unspecified), for which the IC50 in assay [1] is 100 µM. In assay [2], this compound yielded an inhibition of 100%.

Consider `CCNc1ccccc1C[S+]([O-])c1nccn1-c1ncccc1OC` (stereo unspecified), for which the IC50 in assay [1] was found to be 7.5 µM. In assay [2], this compound came in with an inhibition of 82%.

`Cc1ccc(-n2ccnc2[S+]([O-])Cc2ccccc2N(C)C)nc1` (stereo unspecified) displayed an IC50 in assay [1] of 44 µM. The same compound registered an inhibition in assay [2] of 47%.

In turn, `COc1cc(C)nc(-n2ccnc2[S+]([O-])Cc2ccccc2N(C)C)c1` (stereo unspecified) had an IC50 in assay [1] of 3.4 µM. The compound further had an inhibition in assay [2] of 59%. In assay [1], `CN(C)c1ccccc1C[S+]([O-])c1nccn1-c1ncccc1O` (stereo unspecified) gave a half-inhibitory concentration (IC50) of 4.8 µM. In addition, in assay [2], the inhibition stood at 1%. In assay [1], `CNc1ccccc1C[S+]([O-])c1nccn1-c1ncccc1C` (stereo unspecified) displayed an IC50 of 7.5 µM. In assay [1], `CN(C)c1ccccc1C[S+]([O-])c1nccn1-c1cc(OCC(F)(F)F)ccn1` (stereo unspecified) had an IC50 of 6.8 µM. Besides, the inhibition in assay [2] amounted to 11%.

Turning to `Cc1cccnc1-n1ccnc1[S+]([O-])Cc1ccccc1N(C)C` (stereo unspecified), the IC50 in assay [1] worked out at 33 µM. Further, in assay [2], the inhibition amounted to 100%.

For `CCN(CC)c1ccccc1C[S+]([O-])c1nccn1-c1ccccn1` (stereo unspecified), in assay [1], the IC50 was determined as 31 µM. In assay [2], this compound showed an inhibition of 96%. For `CN(C)c1ccccc1C[S+]([O-])c1nccn1CCc1ccccn1` (stereo unspecified), in that order: 44 µM and 87%. For `CN(C)c1ccccc1C[S+]([O-])c1nccn1-c1ccc(C(F)(F)F)cn1` (stereo unspecified), in assay [1], it took 7.4 µM to reach half-maximal inhibition (IC50). The compound further had an inhibition in assay [2] of 36%.

In the case of `CCNc1ccccc1C[S+]([O-])c1nccn1-c1ncccc1C` (stereo unspecified), the IC50 in assay [1] worked out at 18 µM. The inhibition in assay [2] turned out to be 100%. For `CN(C)c1ccccc1C[S+]([O-])c1nc2c(n1-c1ccccn1)CCCC2` (stereo unspecified), in that order: 59 µM and 12%. For `COc1ccnc(-n2ccnc2[S+]([O-])Cc2ccccc2N(C)C)c1` (stereo unspecified), in that order: 2.6 µM and 95%.

For `CN(C)c1ccccc1C[S+]([O-])c1nc2c(n1-c1ccccc1)CCC2` (stereo unspecified), 68 µM corresponded to half-maximal inhibition in assay [1] (IC50). The inhibition in assay [2] worked out at 20%.

`CN(C)c1ccccc1C[S+]([O-])c1nccn1-c1ccc(C#N)cn1` (stereo unspecified): the IC50 in assay [1] amounted to 35 µM. In assay [2], the inhibition was found to be 0%. `CCN(CC)c1ccccc1C[S+]([O-])c1nc2c(n1-c1ccccn1)CCC2` (stereo unspecified): inhibition in assay [1] was half-maximal at 11 µM (IC50). The compound further gave an inhibition in assay [2] of 98%.
